Experimental data as given in US20230142647A1, “METHOD OF TREATING CANCER OR A BLOOD DISORDER” (priority 2021, published 2023).
Where two headings read alike, the source gives them in different places.

Assays:
[1] = tested on: AML with NPM1/FLT3 mutations cells; assay: survival study of combinations in high tumor load PDX model of NPM1/FLT3 mutations (Example 4); format: in vivo, mice; details: at distress point or day 200
From the text: FIG. 9A Treatment groups illustration: Primary acute myelogenous leukemia (AML) patient cells with Nucleophosmin 1 and fins-like tyrosine kinase-3 mutations (NPM1/FLT3) were xenotranplanted into immunodeficient Nod-SCID-IL-2Rgamma-null mice (NSG, Jackson Laboratory) by injecting 1×10^6 cells IV (n=5 per group) at day 0 (D0). Engraftment D28≥45% bone engraftment was confirmed in 3 randomly selected mice. At D28 mice were divided in to five treatment groups (n=5 per group), 1) Vehicle, 2) 5-AC(2 mg/kg)/THU(20 mg/kg), 3) 5-AC(2 mg/kg)/THU(20 mg/kg)/selinexor (5 mg/kg), 4) 5-AC(2 mg/kg)/THU(20 mg/kg)/CAPE (50 mg/kg) and 5) 5-AC(2 mg/kg)/THU(20 mg/kg)/Valtrate(10 mg/kg). […]
Peripheral blood analysis of WBCs, hemoglobin Hb, and platelets count. peripheral blood obtained by tail vein phlebotomy and serial blood counted on day 0, 45, 100, 140 and 200. And analyzed by HemaVet blood lab. […]
An image analysis to evaluate tumor burden of the spleens, was by histologic identification of relatively large infiltrating AML cells, replacing normal splenic structure by H&E staining of spleen sections. Image analysis of cell counts were plotted and quantified. […]
Furthermore, efficacy vs toxicity is best assessed by serial peripheral blood analysis of WBCs, hemoglobin Hb, and platelets. […] Blood samples were analyzed by HemaVet blood lab. […]

[2] = tested on: human NPM1/FLT3-mutated AML cells; assay: single agent survival experiment in PDX model with NPM1/FLT3 mutations (Example 2); format: in vivo, mice; details: 3x/wk from day 24; for survival benefit compared to vehicle (in words): Valtrate 10 mg/kg, CAPE 50 mg/kg, selinexor 7 mg/kg by oral gavage
Protocol: FIG. 4A. Experiment plan diagram. […] THU inhibits cytidine deaminase(CDA) to prolong 5-AC half-life. Treatment was initiated at day 24 and then repeated three times a week. Mice were humanly euthanized after becoming moribund or losing 15% of their initial weight in accordance with institutional guidelines. (FIG. 4B) Survival presented as Kaplan-Meier survival analysis graph from inoculation time to distress. P values and log-rank test are calculated and plotted. […] Mean±SD.
Immunodeficient NSG mice are xenotransplanted with human NPM1/FLT3-mutated AML cells.
On day 24 mice were assigned for treatment groups (n=5 per group). The treatment groups are 1) Vehicle, 2) Valtrate 10 mg/kg by oral gavage, 3) CAPE 50 mg/kg by oral gavage, 4) selinexor 7 mg/kg by oral gavage, 5) 5-AC2 mg/kg subcutaneously, and 6) 5-AC(2 mg/kg) subcutaneously+THU (20 mg/kg) intraperitoneally. The addition of THU extends 5-AC half-life, by inhibiting the enzyme cytidine deaminase(CDA), which degrades 5-AC. Treatment started on day 24, 3×/wk. (FIG. 4A). […] Groups are compared with vehicle and with each other. To monitor progress periodic blood counts are analyzed along with distress signs.

[3] = tested on: AML (NPM1-FLT3 and MLL); format: in vivo
[4] = tested on: HL-60 cell line; assay: AML HL-60 cell line cell counts and morphologic differentiation; format: cell-based; details: Valtrate 6 μM, CAPE 4 μM, 5-AC 2.5 μM, selinexor 20 nM, day 5
Protocol: Cell counts obtained using automated counter, Mean±SD (3 experiments) cell morphology obtained from the same cell culture. P<0.01 significant, t test (2 sided). The small molecule agents were used in dosages: Valtrate (6 μM), CAPE (4 μM), 5-AC (2.5 μM), selinexor (20 nM) and in the combinations relative to vehicle. cell counts (day 0-5) and morphology (day 5). (FIG. 3A) Valtrate, 5-AC, and Valtrate+5-AC cell count and morphologic changes relative to vehicle and individual agents. (FIG. 3B) CAPE, 5-AC, and CAPE+5-AC cell counts day 0-5 and morphologic changes on day 5 relative to vehicle and individual agents. (FIG. 3C) Combinational groups of 5-AC+valtrate, 5-AC+CAPE, and 5-AC+selinexor morphologic development (day 5) are compared.
The low dosages were purposed for use in combination with low dose 5-AC, Such as to position AML cells in a state of hypomethylated accessible chromatin with increased nuclear transcription factors. cell counts and morphologic alterations were observed. Dosages for this purpose were: Valtrate (6 μM), CAPE (4 μM), 5-AC (2.5 μM), and for comparing with Selinexor (20 nM) the same dosages were used for combinations.

Molecule	femoral and tibial bone appearance (white = leukemia replacement, red/dark = functional hematopoiesis) [1]	survival benefit compared to vehicle (in words) [2]	spindle shaped cells (terminal fate morphology) [4]	other results
Nc1ncn([C@@H]2O[C@H](CO)[C@@H](O)[C@H]2O)c(=O)n1 [5-AC, 5-Azacytidine]	White pale bones			survival benefit ([2]; 5-AC 2 mg/kg subcutaneously, THU 20 mg/kg intraperitoneally): more than 25 days
Valtrate		minimal		synergy in combination with 5-AC ([3]; mouse, in vivo): effective synergetic action
O=C1NC(O)CCN1[C@@H]1O[C@H](CO)[C@@H](O)[C@H]1O (stereo partly shown) [THU, Tetrahydrouridine]	White pale bones			
O=C(/C=C/c1ccc(O)c(O)c1)OCCc1ccccc1 [CAPE, Caffeic Acid Phenethyl Ester]		minimal	not observed	synergy in combination with 5-AC ([3]; oral Valtrate 10 mg/kg 3x/wk or CAPE 50 mg/kg 3x/wk, in combination with 5-AC): effective synergetic action
O=C(/C=C\n1cnc(-c2cc(C(F)(F)F)cc(C(F)(F)F)c2)n1)NNc1cnccn1 [selinexor]		minimal	not observed	
